Experiments:
Assay type in all cases: physicochemical
[1] = UV spectrum as a function of pH (phenol deprotonation pKa); conditions: fit of UV absorbance vs pH
Procedure: To probe the speciation of the manganese complexes in solution, pH titrations of 1:1 Mn^2+:ligand were performed using a 1 N NaOH under N2 atmosphere (FIG. 21).
To determine the species that exists in these two pH ranges the UV spectrum as a function of pH was monitored (see FIGS. 22-24).

[2] = T1 measurement by MR imaging at 4.7 T (Bruker Biospec); conditions: room temperature, pH 7.4 TRIS buffer
Procedure: Right: relaxivities measured at room temperature at 4.7 T.
MR imaging was performed using a Bruker Biospec 4.7T system. Three samples (˜500 μL) were placed in a homemade sample holder and imaged using a volume coil. Acquisition matrix=64×256 for 0.234×0.312 mm^2 in-plane resolution; slice thickness=5 mm. T1-weighted images were obtained with a fast low angle shot (FLASH) gradient echo sequence: TR/TE/FA=20/5.44/40° with 8 averages. T1 was determined using a 2D rapid acquisition refocused echo (RARE) inversion recovery sequence: TR=3200 ms, TE=9.7 ms. Inversion times (TI): 5, 45, 85, 165, 325, 645, 1285, 1925 and 3205 ms. T1 was obtained from a nonlinear least square fit of the signal intensity (SI(t)) vs. TI curve where T1, SI(0) and a are adjustable parameters, equation S2.
SI(t)=SI(0)[1−α,e^TI/T1] (eq. S2)

[3] = T1 relaxivity (r1) by inversion recovery on Bruker mq60 Minispec, 1.4 T, 37° C., TRIS buffer pH 7.4; conditions: for T1 relaxivities: 1.4 T, Tris buffered saline pH 7.4, 37° C.; for r1 (relaxivity of manganese complexes): pH 7.4, 37° C., 1.4 Tesla
Procedure: (§1) Liquid chromatography-electrospray mass spectrometry (LC-MS) was performed using an Agilent 1100 Series apparatus with an LC/MSD trap and Daly conversion dynode detector with UV detection at 220, 254 and 280 nm. The methods used on this system are as follows: (a) Luna C18 column (100×2 mm); eluent A: H2O/0.1% formic acid, B: MeCN/0.1% formic acid; gradient: 5% B to 95% B over 9 minutes; flow rate 0.8 mL/min (used for characterization of organic compounds), and (b) Kromasil C18 column (250×4.6 mm); eluent C: 95% MeCN/5% 10 mM ammonium acetate, D: 10 mM ammonium acetate; gradient 5% C to 8% C over 14 minutes; flow rate 0.8 ml/min (used for characterization of manganese complexes). Reversed-phase semipreparative purification was performed on a Rainin Dynamax HPLC system with UV detection at 254 nm using a Polaris C18 column. The method used for purification is as follows: The mobile phase A was 50 mM ammonium acetate buffer, pH 6.5 and mobile phase B was a mixture of 5% 50 mM ammonium acetate buffer, pH 6.5/95% MeCN. Starting from 5% B, the fraction of B increased to 8% over 23 minutes. The column was washed with 100% B for 2 minutes and then ramped to 5% B. The system was re-equilibrated at 5% B for 3 minutes. Relaxivity measurements were performed on a Bruker mq60 Minispec at 1.4 T and 37° C. Manganese concentrations were determined using an Agilent 7500a ICP-MS system. All samples were diluted with 0.1% Triton X-100 in 5% nitric acid containing 20 ppb of Lu (as internal standard). The ratio of Mn (54.94)/Lu(174.97) was used to quantify the manganese concentration. A linear calibration curve ranging from 0.1 ppb to 200 ppb was generated daily for the quantification. UV-Vis spectra were recorded on a SpectraMax M2 spectrophotometer using quartz cuvette with a 1 cm path length. Cyclic voltammetry of Mn^IIHBET, Mn^IIEDTA and Mn^IIIHBET was recorded using a Nuvant EZstat pro potentiostat in TRIS buffer (pH=7.4), containing 0.5M KNO3 as supporting electrolyte, at 100 mVs-1 scan rate. Glassy carbon was used as the working electrode, Ag/AgCl served as the reference electrode and Pt wire was used as the auxiliary electrode. The K4FeCN6/K3FeCN6 couple was used as the internal standard.
T1 was measured with an inversion recovery pulse sequence taking 10 inversion times. Relaxivity was determined from the slope of a plot of 1/T1 vs. concentration of in TRIS buffer, pH=7.4 at 37° C. The concentration of manganese in each stock solution was determined using ICP-MS.
All chemicals and solvents were purchased commercially and used without further purification. NMR spectra were recorded on either a 500 MHz or 400 MHz Varian spectrometers. Chemical shifts are reported in δ (ppm). For ^1H and ^13C NMR spectra, the residual solvent peaks were used as internal reference, except for the ^13C NMR of the ligand where tertiary-butanol was used as the internal reference. Liquid chromatography-electrospray mass spectrometry (LC-MS) was performed using an Agilent 1100 Series apparatus with an LC/MSD trap and Daly conversion dynode detector with UV detection at 220, 254 and 280 nm. The methods used on this system are as follows: (a) Luna C18 column (100×2 mm); eluent A: H2O/0.1% formic acid, B: MeCN/0.1% formic acid; gradient: 5% B to 95% B over 9 minutes; flow rate 0.8 mL/min (used for characterization of organic compounds), and (b) Kromasil C18 column (250×4.6 mm); eluent C: 95% MeCN/5% 10 mM ammonium acetate, D: 10 mM ammonium acetate; gradient 5% C to 8% C over 14 minutes; flow rate 0.8 ml/min (used for characterization of manganese complexes). Reversed-phase semipreparative purification was performed on the Rainin Dynamax HPLC system with UV detection at 254 nm using a Polaris C18 column. The method used for purification is as follows: The mobile phase A was 50 mM ammonium acetate buffer, pH 6.5 and mobile phase B was a mixture of 5% 50 mM ammonium acetate buffer, pH 6.5/95% MeCN. Starting from 5% B, the fraction of B increased to 8% over 23 minutes. […]

[4] = Cyclic voltammetry of the Mn(III)/Mn(II) redox couple
Procedure: Potentials are vs. K4Fe(CN)6/K3Fe(CN)6; and in (b), a Cottrell plot of the Mn^2+/Mn^3+ couple—ia, (decreasing line) and ic (increasing line) vs. √v, where v=scan rate.
as §1

[5] = Stability of manganese complexes in buffers
Procedure: The stability of the manganese complexes were measured in different buffers using concentrations similar to those found in the blood plasma (1 mM phosphate buffer, 25 mM sodium bicarbonate buffer and 0.1 mM citrate buffer). A solution, 0.5 mM, of the manganese complex was incubated in the respective buffers at 37° C. (pH=7.4) and the species were then quantified on the LC-MS using the method as described earlier. The manganese complexes (0.5 mM) were also treated with EDTA (0.5 mM) in TRIS buffer (pH=7.4) and incubated at 37° C. for 1 hour. The species were then quantified on the LC-MS using the method as described earlier.

[6] = Kinetics of reduction of Mn^III-HBET by glutathione; conditions: 37° C., pH 7.4; first-order in both [GSH] and [Mn^III-HBET]
Procedure: A series of kinetic experiments were conducted at 37° C. (pH 7.4) to determine the empirical rate law for the reduction of Mn^III-HBET by glutathione. […] This feature allowed us to easily monitor the reduction of Mn^III-HBET over time. We measured initial reaction rates at three different glutathione concentrations (5 mM, 10 mM and 20 mM). For each glutathione concentration, the reaction was performed at four different initial concentrations of M^III-HBET (0.3 mM, 0.4 mM, 0.5 mM and 0.6 mM). Based on these experiments, we determined that the reaction was first-order in both [GSH] and [Mn^III-HBET] with an overall second-order rate constant of (3.8±0.3)×10^−1 M^−1 s^−1.
This series of kinetic experiments were conducted at 37° C. (pH 7.4) to determine the empirical rate law for the reduction of Mn^III-HBET by glutathione. […] Initial reaction rates were measured at a three different glutathione concentrations (5 mM, 10 mM and 20 mM). […]
Here, the observed rate constant (kobs) is simply the product of the actual rate constant (k) and [GSH], t is time, and the subscripts ‘t’ and ‘o’ refer to the concentration at time T or the initial concentration, respectively. […] Based on these experiments, we determined that the reaction was first-order in both [GSH] and [Mn^III-HBET] with an overall second-order rate constant of (3.8±0.3)×10^−1 M^−1 s^−1.

[7] = Stability of solutions at room temperature
Procedure: 40 binds Mn^II in a 1:1 ratio. This complex was prepared and characterized in situ. Mn^II was carefully titrated to 40 and Mn:40 stoichiometry was monitored by LC-MS or T2-relaxometry as describe above. […] 433.1.

| pKa for ionization of the phenol [1] | fold higher relaxivity of reduced Mn^II-HBET form vs Mn^III-HBET [2] [fold] | T1 relaxivities [3] [mM⁻¹ s⁻¹] | r1 (relaxivity of manganese complexes) [3] [mM⁻¹ s⁻¹] | reversible oxidation peak ([4]; TRIS buffer pH 7.4, vs. K4Fe(CN)6/K3Fe(CN)6) [V] | Half-cell potential vs. normal hydrogen electrode (NHE) ([4]; pH 7.4, vs. NHE) [mV] | stability in phosphate and carbonate buffers [5] | stability of solutions [7] | Relaxivities r1 at 1.41T ([3]; 1.41T, 37° C., pH 7.4 Tris buffer) [mM⁻¹ s⁻¹] | Compound | overall second-order rate constant of reduction by glutathione [6] |
| --- | --- | --- | --- | --- | --- | --- | --- | --- | --- | --- |
| 7.64 | 3.3 | 2.76 | 2.76 | 0.356 | 379 | stable |  |  | O=C([O-])CN(CCN(CC(=O)[O-])Cc1ccccc1[O-])CC(=O)[O-].[Mn+2].[Na+].[Na+] [Compound 4, Na2[Mn^IIHBET]] |  |
|  |  | 1.05 | 1.05 |  |  | stable |  |  | O=C([O-])CN(CCN(CC(=O)[O-])Cc1ccccc1[O-])CC(=O)[O-].[Mn+3].[Na+] [Compound 5, Na[Mn^IIIHBET]] | (3.8±0.3)×10^−1 M^−1 s^−1 |
|  |  |  |  |  |  |  | indefinitely stable | 2.50 | [Mn(CyP3A)] [Compound 41] |  |

Reference: US20150336996A1, “MANGANESE-BASED MAGNETIC RESONANCE CONTRAST AGENTS” (THE GENERAL HOSPITAL CORPORATION, priority 2013, published 2015)
